According to ChEMBL document CHEMBL5356936, “Restoring susceptibility to aminoglycosides: identifying small molecule inhibitors of enzymatic inactivation” (RSC Med Chem, 2023):

Legend:
[1] = Inhibition of Aminoglycoside N-acetyltransferases (unknown origin)
[2] = Inhibition of Histone acetyltransferase in human Huh-7.5.1 cells assessed as hepatitis C virus-induced EGF mRNA level measured after 72 hrs; conditions: Huh-7.5.1, 72 h

| IC50 [1] [µM] | IC50 [2] [µM] | Structure (SMILES) |
| --- | --- | --- |
| 2.1 | – | CC(CCN[C@H](CN[C@H](CO)CN1CCC[C@H]1CN[C@H](CN)c1ccccc1)c1ccccc1)c1ccccc1 (some centres not stated) |
| – | 0.39 | O=C(CCCN1CCC(O)(c2ccc(Cl)cc2)CC1)c1ccc(F)cc1 [HALOPERIDOL] |
